Tested on: rabbit skeletal myofibrils (fast skeletal myofibrils)
Assay: Activation of fast skeletal myofibrils (PUMA assay, PK/LDH-coupled ATPase at pCa25)
Assay type: biochemical
Details: median AC1.4 class, procedure of Example 39
In short: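 ATPase activity of Triton-washed rabbit skeletal myofibrils, roughly 90% fast fibres, tracked by NADH loss at 340 nm through a PK/LDH-coupled ADP-regenerating system. Calcium set to 25% of maximal activity (pCa25), in PIPES 12 mM pH 6.8 with 2 mM MgCl2 and 1 mM DTT; AC1.4 reported.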

SMILES | Mean AC1.4
CC(=O)c1ccc(NCC2(c3ncccc3F)CCC2)nn1 | D (D=>20 uM)
CC(C)(O)C(N)c1ccc(-c2ccc(NCC3(c4ncccc4F)CCC3)nn2)cc1 (centres unmarked) | D (D=>20 uM)
CC(C)(O)c1ncccc1-c1ccc(NCC2(c3ncccc3F)CCC2)nn1 | D (D=>20 uM)
CC(C)(O)c1ccc(NCC2(c3ncccc3F)CCC2)nn1 | D (D=>20 uM)
NC(=O)CNc1ncc(-c2ccc(NCC3(c4ncccc4F)CCC3)nn2)cn1 | C (C=10-20 uM)
CC(C)(CO)Nc1ccc(-c2cccc(C(N)=O)c2)nn1 | D (D=>20 uM)
N#Cc1ncccc1-c1ccc(NCC2(c3ncccc3F)CCC2)nn1 | C (C=10-20 uM)
CC(C)n1[nH]c(=O)c2cc(-c3ccc(NCC4(c5ncccc5F)CCC4)nn3)ccc21 | C (C=10-20 uM)
CC(C)n1[nH]c2ccc(-c3ccc(NCC4(c5ncccc5F)CCC4)nn3)cc2c1=O | B (B=1-10 uM)
CC(=O)Nc1ncc(-c2ccc(NCC3(c4ncccc4F)CCC3)nn2)cn1 | C (C=10-20 uM)
COC(=O)Nc1ncc(-c2ccc(NCC3(c4ncccc4F)CCC3)nn2)cn1 | D (D=>20 uM)
OCc1ncccc1-c1ccc(NCC2(c3ncccc3F)CCC2)nn1 | C (C=10-20 uM)
CS(=O)(=O)Nc1ncc(-c2ccc(NCC3(c4ncccc4F)CCC3)nn2)cn1 | D (D=>20 uM)
CC(C)(Nc1ccc(-c2ccc(N)nc2)nn1)c1ccccc1 | B (B=1-10 uM)
Fc1cccnc1C1(CNc2ccc(-c3ccc(NCC4(c5ncccc5F)CCC4)nn3)nn2)CCC1 | D (D=>20 uM)
NC(=O)Nc1ccc(-c2ccc(NCC3(c4ncccc4F)CC(F)(F)C3)nn2)cc1 | A (A=<1 uM)
NC(=O)Nc1ccc(-c2ccc(NC3(c4ccc(F)cc4)CCC3)nn2)cc1 | A (A=<1 uM)
CCOC(=O)c1ccc(NCC2(c3ncccc3F)CCC2)nn1 | D (D=>20 uM)
COC(=O)c1ncccc1-c1ccc(NCC2(c3ncccc3F)CCC2)nn1 | C (C=10-20 uM)
CC(C)(C)OC(=O)N1CCN(c2ncc(-c3ccc(NCC4(c5ncccc5F)CCC4)nn3)cn2)CC1 | D (D=>20 uM)

Now from value to molecule:

Mean AC1.4 | SMILES
C (C=10-20 uM) | NC(=O)C(N)c1cccc(-c2ccc(NCC3(c4ncccc4F)CCC3)nn2)c1 (centres unmarked)
A (A=<1 uM) | NC(=O)c1cccc(-c2ccc(NC3(c4ccccc4F)CCC3)nn2)c1
B (B=1-10 uM) | NC(=O)c1cccc(-c2ccc(NC3(c4ncccc4F)CCC3)nn2)c1
B (B=1-10 uM) | NC(=O)c1cccc(-c2ccc(NC3(c4cccc(F)c4)CCC3)nn2)c1
B (B=1-10 uM) | NC(=O)c1cccc(-c2ccc(NCC3(c4ncccc4F)CC(F)(F)C3)nn2)c1
A (A=<1 uM) | NC(=O)c1cccc(-c2ccc(NC3(c4ccc(F)cc4)CCC3)nn2)c1
C (C=10-20 uM) | NC(=O)c1ncccc1-c1ccc(NCC2(c3ncccc3F)CCC2)nn1
B (B=1-10 uM) | NC(=O)c1cccc(-c2ccc(NC3(c4ccccc4)CCC3)nn2)c1
B (B=1-10 uM) | O=C1Cc2cc(-c3ccc(NCC4(c5ncccc5F)CCC4)nn3)ccc2N1
A (A=<1 uM) | O=c1[nH][nH]c2ccc(-c3ccc(NCC4(c5ncccc5F)CCC4)nn3)cc12
A (A=<1 uM) | Oc1ccc(-c2ccc(NCC3(c4ncccc4F)CCC3)nn2)nc1
B (B=1-10 uM) | O=C1Cc2ccc(-c3ccc(NCC4(c5ncccc5F)CCC4)nn3)cc2N1
A (A=<1 uM) | CNC(=O)Nc1cccc(-c2ccc(NCC3(c4ncccc4F)CCC3)nn2)c1
A (A=<1 uM) | CC(=O)Nc1ccc(-c2ccc(NCC3(c4ncccc4F)CCC3)nn2)cc1
A (A=<1 uM) | CNC(=O)Nc1ccc(-c2ccc(NCC3(c4ncccc4F)CCC3)nn2)cc1
A (A=<1 uM) | NC(=O)Nc1ccc(-c2ccc(NCC3(c4ncccc4F)CCC3)nn2)cc1
B (B=1-10 uM) | NC(=O)Nc1ccc(-c2ccc(NCC3(c4ncccc4F)CCC3)nn2)cn1
D (D=>20 uM) | NC(=O)Nc1ncc(-c2ccc(NCC3(c4ncccc4F)CCC3)nn2)cn1
